Measured values as given in patent US20190269771A1, “PEPTIDE MIMOTOPE THAT INDUCES AN IMMUNE RESPONSE AGAINST MYCOBACTERIUM TUBERCULOSIS LIPOARABINOMANNAN (LAM)” (priority 2017, published 2019).

How the values were obtained:
[1] = test system: rabbit polyclonal anti-LAM antibody; assay: Peptide ELISA binding assay with rabbit polyclonal anti-LAM antibody; conditions: for OD values, binding of rabbit polyclonal anti-LAM antibody by ELISA: coating 10 μg/ml
Method: The ELISA plate wells were coated with by adding each peptide (2 μg in 0.1M NaHCO3, pH 8.6) and incubating overnight at 4° C. After overnight incubation, plates were blocked with BSA (5 mg/ml) for 1 hour at 4° C. For controls, wells were coated with same amount of LAM or BSA. After washing with TBST, diluted 143 anti-LAM antibodies were added to the ELISA plate and incubated at room temperature for 1 hour. Plates were washed with TBST and HRP-conjugated secondary antibodies were added and incubated for 1 hour. After washing 3 times with TBST, 50 μl of the 1-Step™ Ultra TMB-ELISA (Thermo Scientific Co, Ltd) substrates was added in the dark. After color development, 50 μl of 2M sulfuric acid was added to stop the reaction and absorbance was measured at 450 nm.

[2] = test system: two monoclonal antibodies against M. tuberculosis lipoarabinomannan (LAM); assay: Binding of recombinant M13 phages displaying the peptides to the anti-LAM mAbs; conditions: peptide displayed on the g3p minor coat protein of recombinant M13 phage
[3] = test system: Mouse anti-LAM antibodies; assay: ELISA with serum from LAM vaccinated mice against various antigens; type: binding; conditions: Swiss-Webster mice vaccinated with LAM combined with alum; FIG. 2D
Method: To perform ELISAS, 96-well ELISA plates (Greiner Bio-One Catalogue #655-001) were coated with 10 μg of corresponding coating antigens: HS peptide, HSSR peptide, Baculovirus, SG peptide, SGSR peptide, or LAM resuspended in coating buffer (0.1M NaHCO3, pH 8.6). After overnight coating at 4° C., blocking (5% skim milk in PBS) was performed for 1 hour at room temperature. After washing 3 times with washing buffer (0.01% Tween-20 in PBS), mouse serum was added to the appropriate wells and binding proceeded at room temperature for 1 hour. […] After incubating for 1 hour at room temperature, the plate was washed 3 times with TBST and 50 μl 179 of the 1-Step™ Ultra TMB180 ELISA substrate (Thermo Scientific) was added. 50 ul of 2M sulfuric acid was then added to stop the reaction and absorbance was measured at 450 nm.

CISLTEWSMWYRH [Peptide P8, previously published LAM mimotope peptide, reference compound]
detection of KLH-conjugated peptide by rabbit anti-LAM polyclonal antibody above control ([1]; peptides conjugated to KLH vs scramble control, only at the 1:1000 dilution, FIG. 1B-E): could be specifically detected

HSFKWLDSPRLR [HS peptide]
binding affinity with both mAbs [2]: strong binding affinity | OD values, binding of rabbit polyclonal anti-LAM antibody by ELISA ([1]; HS peptide experiment, FIG. 2B): 0.45

KLH alone: keyhole limpet hemocyanin carrier protein [reference compound]
binding by serum from LAM vaccinated mice [3]: not

SGVYKVAYDWQH [SG peptide]
binding affinity with both mAbs [2]: strong binding affinity | OD values, binding of rabbit polyclonal anti-LAM antibody by ELISA ([1]; SG peptide experiment, FIG. 2C): 0.32
